Results from US11000033B2, “Ketone or oxime compound, and herbicide” (NISSAN CHEMICAL CORPORATION, priority 2014, dated 2021).

Experiments:
[1] = system: Echinochloa crus-galli var. crus-galli; assay: Test Example 3: herbicidal effect by foliage application, Wagner pot (symbol H); format: in vivo; conditions: application herbicide amount 320 g/ha; for H (Echinochloa crus-galli var. crus-galli) herbicidal effect grade: Table 24
Outline: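 Scoring took place 3 weeks after application, using fixed criteria. Plants had been raised from seed for 14 days at 25 to 30 °C in submerged alluvial soil before a diluted emulsion of the test compound was sprayed uniformly on the leaves.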

[2] = system: Monochoria vaginalis; assay: Test Example 1: herbicidal activity, application before weed generation in submerged conditions (symbol C); format: in vivo; conditions: application herbicide amount 320 g/ha
Outline: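 Steps: alluvial soil flooded to 4 cm; weed seeds sown together; rice seedlings (2.5 leaf) transplanted; diluted emulsion applied to water surface the same day as sowing; plants grown at 25–30 °C in greenhouse; herbicidal effect rated on a 0–5 scale at 3 weeks.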

| SMILES | herbicidal effect on H (Echinochloa crus-galli var. crus-galli), grade 0-5 [1] | Herbicidal effect grade, C: Monochoria vaginalis [2] | H (Echinochloa crus-galli var. crus-galli) herbicidal effect grade [1] |
| --- | --- | --- | --- |
| CON=C(C)CC1CC(OC(=O)COc2ccccc2)=C(c2c(C)cc(-c3ccccc3)cc2OC)C1=O (stereo not drawn) [6-100] | 5 (Herbicidal ratio of 90% or more (almost completely withered)) | 5 (Herbicidal ratio of 90% or more (almost completely withered)) |  |
| CON=C(C)CC1CC(O)=C(c2c(F)cc(C)cc2OC)C1=O (stereo not drawn) [6-108] | 5 (Herbicidal ratio of 90% or more (almost completely withered)) | 0 (Herbicidal ratio of 5% or lower (almost no effect)) |  |
| CON=C(C)CC1CC(OC(=O)C(C)(C)Oc2ccccc2)=C(c2c(C)cc(C)cc2C)C1=O (stereo not drawn) [1-017] | 5 (Herbicidal ratio of 90% or more (almost completely withered)) | 2 (Herbicidal ratio of 20% or higher and lower than 40%) |  |
| CON=C(C)CC1CC(OC(=O)N2CCOCC2)=C(c2c(C)cc(-c3ccc(Cl)cc3)cc2C)C1=O (mixture of isomers) [6-062] | 5 (Herbicidal ratio of 90% or more (almost completely withered)) | 4 (Herbicidal ratio of 70% or higher and lower than 90%) |  |
| CC(CC1CC(O)=C(c2c(C)cc(C)cc2C)C1=O)=NOCc1ccccn1 (stereo not drawn) [1-022] | 5 (Herbicidal ratio of 90% or more (almost completely withered)) | 2 (Herbicidal ratio of 20% or higher and lower than 40%) |  |
| CON=C(C)CC1CC(O)=C(c2c(C)cc(OCc3ccncc3)cc2C)C1=O (mixture of isomers) [6-053] | 5 (Herbicidal ratio of 90% or more (almost completely withered)) | 1 (Herbicidal ratio of 5% or higher and lower than 20%) |  |
| CC(=O)CC1CC(O)=C(c2c(C)cc(-c3ccccc3)cc2C)C1=O (stereo not drawn) [7-004] | 5 (Herbicidal ratio of 90% or more (almost completely withered)) | 0 (Herbicidal ratio of 5% or lower (almost no effect)) |  |
| CON=C(C)CC1CC(OC(=O)N2CCCCC2)=C(c2c(C)cc(C)cc2OC)C1=O (stereo not drawn) [6-111] | 5 (Herbicidal ratio of 90% or more (almost completely withered)) | 2 (Herbicidal ratio of 20% or higher and lower than 40%) |  |
| CON=C(C)CC1CC(O)=C(c2c(C)cc(-c3cc(F)c(F)c(F)c3)cc2C)C1=O (stereo not drawn) [6-104] | 5 (Herbicidal ratio of 90% or more (almost completely withered)) | 5 (Herbicidal ratio of 90% or more (almost completely withered)) |  |
| CON=C(C)CC1CC(OS(=O)(=O)N(C)C)=C(c2c(C)cc(C)cc2OC)C1=O (stereo not drawn) [6-095] | 5 (Herbicidal ratio of 90% or more (almost completely withered)) | 0 (Herbicidal ratio of 5% or lower (almost no effect)) |  |
| CON=C(C)CC1CC(OC(=O)C(C)CSC)=C(c2c(C)cc(-c3ccc(Cl)cc3)cc2C)C1=O (stereo not drawn) [6-086] | 5 (Herbicidal ratio of 90% or more (almost completely withered)) | 0 (Herbicidal ratio of 5% or lower (almost no effect)) |  |
| CON=C(C)C(C)C1CC(O)=C(c2c(C)cc(Br)cc2OC)C1=O (stereo not drawn) [6-113] | 5 (Herbicidal ratio of 90% or more (almost completely withered)) | 0 (Herbicidal ratio of 5% or lower (almost no effect)) |  |
| CON=C(C)CC1CC(O)=C(c2c(C)cc(-c3ccccn3)cc2C)C1=O (mixture of isomers) [6-051] | 5 (Herbicidal ratio of 90% or more (almost completely withered)) | 2 (Herbicidal ratio of 20% or higher and lower than 40%) |  |
| CC(=O)C1CC(O)=C(c2c(C)cc(C)cc2C)C1=O (stereo not drawn) [8-001] |  | 0 (Herbicidal ratio of 5% or lower (almost no effect)) | 0 (Herbicidal ratio of 5% or lower (almost no effect)) |
| CCc1cc(Br)cc(C)c1C1=C(O)CC(C(C(C)=O)C(=O)OC)C1=O (stereo not drawn) [7-001] | 4 (Herbicidal ratio of 70% or higher and lower than 90%) | 0 (Herbicidal ratio of 5% or lower (almost no effect)) |  |
| CON=C(C)CC1CC(OC(=O)C2CC2)=C(c2c(C)cc(C)cc2C)C1=O (stereo not drawn) [1-015] | 5 (Herbicidal ratio of 90% or more (almost completely withered)) | 2 (Herbicidal ratio of 20% or higher and lower than 40%) |  |
| CON=C(C)CC1CC(OC(=O)CCCC(C)=O)=C(c2c(C)cc(-c3ccc(Cl)cc3)cc2C)C1=O (stereo not drawn) [6-080] | 5 (Herbicidal ratio of 90% or more (almost completely withered)) | 2 (Herbicidal ratio of 20% or higher and lower than 40%) |  |

| SMILES | herbicidal effect on H (Echinochloa crus-galli var. crus-galli), grade 0-5 [1] | Herbicidal effect grade, C: Monochoria vaginalis [2] | H (Echinochloa crus-galli var. crus-galli) herbicidal effect grade [1] |
| --- | --- | --- | --- |
| CON=C(C)CC1CC(OC(=O)N2CCOCC2)=C(c2c(C)cc(C)cc2OC)C1=O (stereo not drawn) [6-094] | 5 (Herbicidal ratio of 90% or more (almost completely withered)) | 3 (Herbicidal ratio of 40% or higher and lower than 70%) |  |
| CC(=O)CC1CC(O)=C(c2c(C)cc(-c3ccc(C(F)(F)F)cc3)cc2C)C1=O (stereo not drawn) [7-005] | 5 (Herbicidal ratio of 90% or more (almost completely withered)) | 0 (Herbicidal ratio of 5% or lower (almost no effect)) |  |
| CC(=O)CC1CC(O)=C(c2c(C)cc(C)cc2Br)C1=O (stereo not drawn) [7-011] | 5 (Herbicidal ratio of 90% or more (almost completely withered)) | 0 (Herbicidal ratio of 5% or lower (almost no effect)) |  |
| CC(=O)CC1CC(O)=C(c2c(C)cc(-c3ccc(C)cc3)cc2C)C1=O (stereo not drawn) [7-007] | 5 (Herbicidal ratio of 90% or more (almost completely withered)) | 3 (Herbicidal ratio of 40% or higher and lower than 70%) |  |
| CON=C(C)CC1CC(OS(=O)(=O)N(C)C)=C(c2c(C)cc(-c3ccc(F)cc3)cc2C)C1=O (mixture of isomers) [6-060] | 5 (Herbicidal ratio of 90% or more (almost completely withered)) | 5 (Herbicidal ratio of 90% or more (almost completely withered)) |  |
| CON=C(C)CC1CC(OC(=O)SC(C)(C)C)=C(c2c(C)cc(-c3ccc(Cl)cc3)cc2C)C1=O (stereo not drawn) [6-082] | 5 (Herbicidal ratio of 90% or more (almost completely withered)) | 4 (Herbicidal ratio of 70% or higher and lower than 90%) |  |
| CON=C(C)CC1CC(O)=C(c2c(C)cc(-c3ccc(OC(F)(F)F)cc3)cc2C)C1=O (mixture of isomers) [6-056] | 4 (Herbicidal ratio of 70% or higher and lower than 90%) | 0 (Herbicidal ratio of 5% or lower (almost no effect)) |  |
| CON=C(C)CC1CC(OC(=O)COc2ccccc2)=C(c2c(C)cc(-c3ccc(Cl)cc3)cc2OC)C1=O (stereo not drawn) [6-079] | 5 (Herbicidal ratio of 90% or more (almost completely withered)) | 2 (Herbicidal ratio of 20% or higher and lower than 40%) |  |
| CON=C(C)CC1CC(OC(=O)N(C)C)=C(c2c(C)cc(C)cc2OC)C1=O (stereo not drawn) [6-109] | 5 (Herbicidal ratio of 90% or more (almost completely withered)) | 3 (Herbicidal ratio of 40% or higher and lower than 70%) |  |
| COc1ccc(-c2cc(C)c(C3=C(O)CC(CC(C)=O)C3=O)c(C)c2)cc1 (stereo not drawn) [7-006] | 5 (Herbicidal ratio of 90% or more (almost completely withered)) | 0 (Herbicidal ratio of 5% or lower (almost no effect)) |  |
| CC(=O)CC1CC(O)=C(c2c(C)cc(OCc3ccccc3)cc2C)C1=O (stereo not drawn) [7-018] | 3 (Herbicidal ratio of 40% or higher and lower than 70%) | 0 (Herbicidal ratio of 5% or lower (almost no effect)) |  |
| CCc1cc(-c2ccc(Cl)cc2)cc(C)c1C1=C(O)CC(CC(C)=NOC)C1=O (stereo not drawn) [6-066] | 5 (Herbicidal ratio of 90% or more (almost completely withered)) | 2 (Herbicidal ratio of 20% or higher and lower than 40%) |  |
| CC(CC1CC(O)=C(c2c(C)cc(C)cc2C)C1=O)=NOCc1ccccc1 (stereo not drawn) [1-020] | 5 (Herbicidal ratio of 90% or more (almost completely withered)) | 4 (Herbicidal ratio of 70% or higher and lower than 90%) |  |
| COc1cc(Br)cc(C)c1C1=C(O)CC(CC(C)=O)C1=O (stereo not drawn) [7-027, 2-(4-bromo-2-methoxy-6-methylphenyl)-3-hydroxy-5-(2-oxopropyl)cyclopent-2-enone] |  | 2 (Herbicidal ratio of 20% or higher and lower than 40%) | 5 (Herbicidal ratio of 90% or more (almost completely withered)) |
| C#CCON=C(C)CC1CC(O)=C(c2c(C)cc(C)cc2C)C1=O (stereo not drawn) [1-019] | 5 (Herbicidal ratio of 90% or more (almost completely withered)) | 2 (Herbicidal ratio of 20% or higher and lower than 40%) |  |
| CON=C(C)CC1CC(O)=C(c2c(C)cc(-c3cc(Cl)cc(Cl)c3)cc2C)C1=O (stereo not drawn) [6-087] | 5 (Herbicidal ratio of 90% or more (almost completely withered)) | 0 (Herbicidal ratio of 5% or lower (almost no effect)) |  |
